Measured values from the kinase profiling compilation of Christmann-Franck et al. (2016).

Tests used:
Assay in all cases: KINOMEscan competition binding
Conditions in all cases: compound 10.0 µM
CDK7 (human) = CDK7 (human) (UniProt P50613)
MINK1 (human) = MINK1 (human) (UniProt Q8N4C8)
DCLK3 (human) = DCLK3 (human) (UniProt Q9C098)
PRKCD (human) = PRKCD (human) (UniProt Q05655)
BMPR1B (human) = BMPR1B (human) (UniProt O00238)
RPS6KA1 KD2 (human) = RPS6KA1 KD2 (human) (UniProt Q15418)
PRKD1 (human) = PRKD1 (human) (UniProt Q15139)
PRKCE (human) = PRKCE (human) (UniProt Q02156)
MAPK3 (human) = MAPK3 (human) (UniProt P27361)
CDK2 (human) = CDK2 (human) (UniProt P24941)
MAP4K3 (human) = MAP4K3 (human) (UniProt Q8IVH8)
TIE1 (human) = TIE1 (human) (UniProt P35590)
RPS6KA5 KD2 (human) = RPS6KA5 KD2 (human) (UniProt O75582)
MLTK (human) = MLTK (human) (UniProt Q9NYL2)
CIT (human) = CIT (human) (UniProt O14578)
LATS2 (human) = LATS2 (human) (UniProt Q9NRM7)
PRKX (human) = PRKX (human) (UniProt P51817)
FRK (human) = FRK (human) (UniProt P42685)
BRSK2 (human) = BRSK2 (human) (UniProt Q8IWQ3)
PRKAA1 (human) = PRKAA1 (human) (UniProt Q13131)
WEE2 (human) = WEE2 (human) (UniProt P0C1S8)
AAK1 (human) = AAK1 (human) (UniProt Q2M2I8)
CAMK1G (human) = CAMK1G (human) (UniProt Q96NX5)
ITK (human) = ITK (human) (UniProt Q08881)
BLK (human) = BLK (human) (UniProt P51451)
CLK4 (human) = CLK4 (human) (UniProt Q9HAZ1)
STK24 (human) = STK24 (human) (UniProt Q9Y6E0)
PRKD3 (human) = PRKD3 (human) (UniProt O94806)
MAPKAPK2 (human) = MAPKAPK2 (human) (UniProt P49137)
MAPK8 (human) = MAPK8 (human) (UniProt P45983)
MUSK (human) = MUSK (human) (UniProt O15146)
FGFR3 (human) = FGFR3 (human) (UniProt P22607)
STK33 (human) = STK33 (human) (UniProt Q9BYT3)
RPS6KA4 KD2 (human) = RPS6KA4 KD2 (human) (UniProt O75676)
BMP2K (human) = BMP2K (human) (UniProt Q9NSY1)
SRPK2 (human) = SRPK2 (human) (UniProt P78362)
CDK16 (human) = CDK16 (human) (UniProt Q00536)
LCK (human) = LCK (human) (UniProt P06239)
TYRO3 (human) = TYRO3 (human) (UniProt Q06418)
CDC42BPG (human) = CDC42BPG (human) (UniProt Q6DT37)
TNK2 (human) = TNK2 (human) (UniProt Q07912)
ACVR2B (human) = ACVR2B (human) (UniProt Q13705)
Sequence of ACVR2B (human) (Q13705 whole entry, looked up): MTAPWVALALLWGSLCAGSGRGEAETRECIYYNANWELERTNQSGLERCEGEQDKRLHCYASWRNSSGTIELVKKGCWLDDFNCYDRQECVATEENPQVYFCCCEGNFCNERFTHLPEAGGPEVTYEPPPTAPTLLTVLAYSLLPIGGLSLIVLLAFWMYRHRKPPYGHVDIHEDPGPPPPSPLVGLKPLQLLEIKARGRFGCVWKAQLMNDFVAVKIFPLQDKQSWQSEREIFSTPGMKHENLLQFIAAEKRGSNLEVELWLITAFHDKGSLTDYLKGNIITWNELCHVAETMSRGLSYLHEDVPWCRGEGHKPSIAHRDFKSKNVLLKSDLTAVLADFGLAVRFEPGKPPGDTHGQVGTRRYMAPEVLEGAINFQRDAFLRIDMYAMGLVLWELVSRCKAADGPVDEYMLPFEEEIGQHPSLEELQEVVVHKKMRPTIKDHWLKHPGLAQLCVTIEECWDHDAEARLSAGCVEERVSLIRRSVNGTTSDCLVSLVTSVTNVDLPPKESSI

Sequence of MLTK (human) (Q9NYL2 whole entry, looked up): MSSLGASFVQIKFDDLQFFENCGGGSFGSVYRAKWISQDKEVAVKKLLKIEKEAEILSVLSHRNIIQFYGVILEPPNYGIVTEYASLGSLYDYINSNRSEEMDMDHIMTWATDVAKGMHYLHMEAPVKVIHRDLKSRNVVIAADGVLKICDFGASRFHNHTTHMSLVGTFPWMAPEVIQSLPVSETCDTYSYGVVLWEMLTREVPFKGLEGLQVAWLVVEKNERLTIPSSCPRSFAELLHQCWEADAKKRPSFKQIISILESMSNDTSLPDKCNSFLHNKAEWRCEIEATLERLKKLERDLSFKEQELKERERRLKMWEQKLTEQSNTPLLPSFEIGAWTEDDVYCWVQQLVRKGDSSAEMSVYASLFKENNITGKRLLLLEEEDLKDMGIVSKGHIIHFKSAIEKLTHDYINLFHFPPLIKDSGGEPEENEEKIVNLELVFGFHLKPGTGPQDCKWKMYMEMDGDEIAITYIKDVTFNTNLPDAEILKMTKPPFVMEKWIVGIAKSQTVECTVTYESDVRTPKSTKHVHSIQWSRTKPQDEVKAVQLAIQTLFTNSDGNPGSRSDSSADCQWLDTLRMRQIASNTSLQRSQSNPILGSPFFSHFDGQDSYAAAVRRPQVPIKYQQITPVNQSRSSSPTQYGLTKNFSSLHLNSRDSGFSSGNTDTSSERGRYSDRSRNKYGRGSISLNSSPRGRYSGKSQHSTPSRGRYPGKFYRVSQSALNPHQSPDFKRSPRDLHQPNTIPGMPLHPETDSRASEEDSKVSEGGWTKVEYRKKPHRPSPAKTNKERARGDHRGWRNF
Sequence of BRSK2 (human) (Q8IWQ3 whole entry, looked up): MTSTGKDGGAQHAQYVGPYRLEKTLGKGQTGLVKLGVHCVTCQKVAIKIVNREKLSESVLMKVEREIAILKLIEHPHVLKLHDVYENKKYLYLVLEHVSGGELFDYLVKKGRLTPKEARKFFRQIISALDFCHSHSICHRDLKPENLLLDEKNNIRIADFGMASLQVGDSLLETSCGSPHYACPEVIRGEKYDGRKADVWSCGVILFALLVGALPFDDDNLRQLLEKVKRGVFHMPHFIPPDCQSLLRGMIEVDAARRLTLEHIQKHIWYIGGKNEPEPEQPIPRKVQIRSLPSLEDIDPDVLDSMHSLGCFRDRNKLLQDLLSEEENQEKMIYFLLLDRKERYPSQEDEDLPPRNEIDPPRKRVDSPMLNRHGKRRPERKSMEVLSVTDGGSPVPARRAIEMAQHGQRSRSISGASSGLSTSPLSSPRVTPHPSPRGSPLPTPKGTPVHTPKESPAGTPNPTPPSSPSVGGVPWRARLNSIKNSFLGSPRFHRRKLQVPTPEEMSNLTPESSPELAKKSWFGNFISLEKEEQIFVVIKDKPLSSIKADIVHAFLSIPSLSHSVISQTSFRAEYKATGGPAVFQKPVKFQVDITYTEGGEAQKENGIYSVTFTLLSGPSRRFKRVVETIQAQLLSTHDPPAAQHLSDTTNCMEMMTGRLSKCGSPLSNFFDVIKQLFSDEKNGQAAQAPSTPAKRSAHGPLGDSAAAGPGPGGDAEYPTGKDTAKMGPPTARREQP
Sequence of SRPK2 (human) (P78362 whole entry, looked up): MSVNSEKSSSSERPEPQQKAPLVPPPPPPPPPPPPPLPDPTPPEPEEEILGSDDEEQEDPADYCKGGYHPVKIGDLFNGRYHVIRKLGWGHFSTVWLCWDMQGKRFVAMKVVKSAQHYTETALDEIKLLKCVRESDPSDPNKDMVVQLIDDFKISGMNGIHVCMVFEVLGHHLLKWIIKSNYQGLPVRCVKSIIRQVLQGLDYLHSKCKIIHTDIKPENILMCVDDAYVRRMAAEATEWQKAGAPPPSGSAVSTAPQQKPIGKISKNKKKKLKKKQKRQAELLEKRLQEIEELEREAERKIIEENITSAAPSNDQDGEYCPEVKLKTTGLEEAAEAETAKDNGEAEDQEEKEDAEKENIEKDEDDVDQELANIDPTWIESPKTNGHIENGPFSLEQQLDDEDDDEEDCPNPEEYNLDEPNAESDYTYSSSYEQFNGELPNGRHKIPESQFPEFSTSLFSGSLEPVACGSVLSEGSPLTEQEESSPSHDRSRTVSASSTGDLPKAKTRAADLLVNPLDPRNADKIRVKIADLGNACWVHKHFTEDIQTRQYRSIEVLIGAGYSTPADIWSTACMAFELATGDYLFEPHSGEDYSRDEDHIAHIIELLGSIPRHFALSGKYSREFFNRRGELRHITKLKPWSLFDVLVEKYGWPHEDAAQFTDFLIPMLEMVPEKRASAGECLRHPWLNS
Sequence of DCLK3 (human) (Q9C098 whole entry, looked up): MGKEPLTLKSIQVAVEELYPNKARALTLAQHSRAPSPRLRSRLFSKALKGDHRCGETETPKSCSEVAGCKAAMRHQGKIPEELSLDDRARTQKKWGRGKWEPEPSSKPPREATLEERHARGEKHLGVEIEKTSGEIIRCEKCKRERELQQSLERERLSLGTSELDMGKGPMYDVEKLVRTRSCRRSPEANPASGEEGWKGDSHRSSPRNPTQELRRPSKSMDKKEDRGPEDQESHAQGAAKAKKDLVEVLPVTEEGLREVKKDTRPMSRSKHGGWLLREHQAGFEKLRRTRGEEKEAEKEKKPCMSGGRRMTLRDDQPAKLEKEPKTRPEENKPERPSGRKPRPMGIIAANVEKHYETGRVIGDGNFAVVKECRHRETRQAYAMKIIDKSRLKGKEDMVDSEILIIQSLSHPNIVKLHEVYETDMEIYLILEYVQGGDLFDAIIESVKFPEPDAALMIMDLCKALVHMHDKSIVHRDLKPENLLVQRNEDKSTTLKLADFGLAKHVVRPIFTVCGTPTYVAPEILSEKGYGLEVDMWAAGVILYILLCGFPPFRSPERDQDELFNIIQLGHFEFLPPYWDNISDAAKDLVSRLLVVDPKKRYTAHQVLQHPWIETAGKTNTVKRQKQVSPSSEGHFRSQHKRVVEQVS
Sequence of MINK1 (human) (Q8N4C8 whole entry, looked up): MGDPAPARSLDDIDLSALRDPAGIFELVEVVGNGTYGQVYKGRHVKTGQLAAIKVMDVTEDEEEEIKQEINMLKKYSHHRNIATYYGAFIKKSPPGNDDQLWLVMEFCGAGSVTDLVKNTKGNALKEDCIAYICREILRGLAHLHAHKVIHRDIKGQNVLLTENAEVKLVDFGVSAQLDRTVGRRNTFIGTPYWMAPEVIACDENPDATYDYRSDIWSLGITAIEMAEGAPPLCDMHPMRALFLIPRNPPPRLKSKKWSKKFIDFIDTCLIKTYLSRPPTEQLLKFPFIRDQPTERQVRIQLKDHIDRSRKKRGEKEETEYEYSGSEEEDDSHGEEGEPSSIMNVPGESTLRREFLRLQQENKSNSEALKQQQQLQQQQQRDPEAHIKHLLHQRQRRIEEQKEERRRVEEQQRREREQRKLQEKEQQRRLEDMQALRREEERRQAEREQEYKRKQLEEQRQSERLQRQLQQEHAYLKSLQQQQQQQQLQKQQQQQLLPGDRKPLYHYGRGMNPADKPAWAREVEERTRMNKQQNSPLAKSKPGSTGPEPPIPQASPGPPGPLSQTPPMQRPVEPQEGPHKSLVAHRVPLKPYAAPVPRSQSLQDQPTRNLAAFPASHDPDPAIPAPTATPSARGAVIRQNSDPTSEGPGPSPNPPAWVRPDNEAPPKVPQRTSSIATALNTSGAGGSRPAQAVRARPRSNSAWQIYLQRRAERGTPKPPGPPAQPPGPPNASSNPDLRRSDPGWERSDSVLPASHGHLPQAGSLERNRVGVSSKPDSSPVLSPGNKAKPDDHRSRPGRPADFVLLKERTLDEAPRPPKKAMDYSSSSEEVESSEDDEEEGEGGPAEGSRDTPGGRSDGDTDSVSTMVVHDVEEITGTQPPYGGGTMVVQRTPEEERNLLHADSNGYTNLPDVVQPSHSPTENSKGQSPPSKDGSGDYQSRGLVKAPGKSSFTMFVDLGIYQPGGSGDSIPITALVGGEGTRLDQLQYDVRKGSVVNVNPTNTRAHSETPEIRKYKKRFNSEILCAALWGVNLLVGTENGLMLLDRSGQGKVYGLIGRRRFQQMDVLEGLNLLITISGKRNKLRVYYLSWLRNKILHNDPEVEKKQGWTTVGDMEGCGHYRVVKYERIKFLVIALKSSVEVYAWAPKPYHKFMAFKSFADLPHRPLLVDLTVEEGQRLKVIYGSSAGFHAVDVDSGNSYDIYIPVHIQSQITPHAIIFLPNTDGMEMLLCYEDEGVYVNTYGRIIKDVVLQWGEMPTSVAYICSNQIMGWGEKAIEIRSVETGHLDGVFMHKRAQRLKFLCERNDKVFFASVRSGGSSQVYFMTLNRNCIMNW
Sequence of CDK7 (human) (P50613 whole entry, looked up): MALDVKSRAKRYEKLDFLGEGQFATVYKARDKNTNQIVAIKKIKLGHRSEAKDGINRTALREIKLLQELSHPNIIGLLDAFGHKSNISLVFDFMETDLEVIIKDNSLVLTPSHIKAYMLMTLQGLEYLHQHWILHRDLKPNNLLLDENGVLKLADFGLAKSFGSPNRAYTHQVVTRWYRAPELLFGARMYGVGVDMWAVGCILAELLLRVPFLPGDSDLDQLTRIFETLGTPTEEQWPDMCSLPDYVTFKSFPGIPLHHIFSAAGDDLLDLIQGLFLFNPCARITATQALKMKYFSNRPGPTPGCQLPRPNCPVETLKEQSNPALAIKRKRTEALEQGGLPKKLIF

COc1cc(N2CCN(C)CC2)ccc1Nc1ncc2c(n1)N(C)c1sccc1C(=O)N2C
kinase still bound, per cent of control (CDK7 (human)): 67%
kinase still bound, per cent of control (MINK1 (human)): 46%
kinase still bound, per cent of control (DCLK3 (human)): 18%
kinase still bound, per cent of control (PRKCD (human)): 100%
kinase still bound, per cent of control (BMPR1B (human)): 91%
kinase still bound, per cent of control (RPS6KA1 KD2 (human)): 24%
kinase still bound, per cent of control (PRKD1 (human)): 12%
kinase still bound, per cent of control (PRKCE (human)): 97%
kinase still bound, per cent of control (MAPK3 (human)): 95%
kinase still bound, per cent of control (CDK2 (human)): 92%
kinase still bound, per cent of control (MAP4K3 (human)): 79%
kinase still bound, per cent of control (TIE1 (human)): 93%
kinase still bound, per cent of control (RPS6KA5 KD2 (human)): 57%
kinase still bound, per cent of control (MLTK (human)): 97%
kinase still bound, per cent of control (CIT (human)): 85%
kinase still bound, per cent of control (LATS2 (human)): 100%
kinase still bound, per cent of control (PRKX (human)): 82%
kinase still bound, per cent of control (FRK (human)): 13%
kinase still bound, per cent of control (BRSK2 (human)): 100%
kinase still bound, per cent of control (PRKAA1 (human)): 99%
kinase still bound, per cent of control (WEE2 (human)): 94%
kinase still bound, per cent of control (AAK1 (human)): 75%
kinase still bound, per cent of control (CAMK1G (human)): 68%
kinase still bound, per cent of control (ITK (human)): 81%
kinase still bound, per cent of control (BLK (human)): 100%
kinase still bound, per cent of control (CLK4 (human)): 66%
kinase still bound, per cent of control (STK24 (human)): 72%
kinase still bound, per cent of control (PRKD3 (human)): 5.8%
kinase still bound, per cent of control (MAPKAPK2 (human)): 89%
kinase still bound, per cent of control (MAPK8 (human)): 86%
kinase still bound, per cent of control (MUSK (human)): 100%
kinase still bound, per cent of control (FGFR3 (human)): 100%
kinase still bound, per cent of control (STK33 (human)): 1.2%
kinase still bound, per cent of control (RPS6KA4 KD2 (human)): 13%
kinase still bound, per cent of control (BMP2K (human)): 98%
kinase still bound, per cent of control (SRPK2 (human)): 100%
kinase still bound, per cent of control (CDK16 (human)): 97%
kinase still bound, per cent of control (LCK (human)): 100%
kinase still bound, per cent of control (TYRO3 (human)): 76%
kinase still bound, per cent of control (CDC42BPG (human)): 91%
kinase still bound, per cent of control (TNK2 (human)): 25%
kinase still bound, per cent of control (ACVR2B (human)): 100%

COc1cc(N2CCC(O)CC2)ccc1Nc1ncc2c(n1)N1CCc3cccc(c31)C(=O)N2C
kinase still bound, per cent of control (CDK7 (human)): 83%
kinase still bound, per cent of control (MINK1 (human)): 60%
kinase still bound, per cent of control (DCLK3 (human)): 84%
kinase still bound, per cent of control (PRKCD (human)): 100%
kinase still bound, per cent of control (BMPR1B (human)): 88%
kinase still bound, per cent of control (RPS6KA1 KD2 (human)): 8%
kinase still bound, per cent of control (PRKD1 (human)): 12%
kinase still bound, per cent of control (PRKCE (human)): 91%
kinase still bound, per cent of control (MAPK3 (human)): 99%
kinase still bound, per cent of control (CDK2 (human)): 87%
kinase still bound, per cent of control (MAP4K3 (human)): 66%
kinase still bound, per cent of control (TIE1 (human)): 94%
kinase still bound, per cent of control (RPS6KA5 KD2 (human)): 62%
kinase still bound, per cent of control (MLTK (human)): 100%
kinase still bound, per cent of control (CIT (human)): 10%
kinase still bound, per cent of control (LATS2 (human)): 100%
kinase still bound, per cent of control (PRKX (human)): 91%
kinase still bound, per cent of control (FRK (human)): 81%
kinase still bound, per cent of control (BRSK2 (human)): 85%
kinase still bound, per cent of control (PRKAA1 (human)): 84%
kinase still bound, per cent of control (WEE2 (human)): 87%
kinase still bound, per cent of control (AAK1 (human)): 35%
kinase still bound, per cent of control (CAMK1G (human)): 57%
kinase still bound, per cent of control (ITK (human)): 90%
kinase still bound, per cent of control (BLK (human)): 100%
kinase still bound, per cent of control (CLK4 (human)): 70%
kinase still bound, per cent of control (STK24 (human)): 84%
kinase still bound, per cent of control (PRKD3 (human)): 22%
kinase still bound, per cent of control (MAPKAPK2 (human)): 100%
kinase still bound, per cent of control (MAPK8 (human)): 68%
kinase still bound, per cent of control (MUSK (human)): 100%
kinase still bound, per cent of control (FGFR3 (human)): 100%
kinase still bound, per cent of control (STK33 (human)): 3.3%
kinase still bound, per cent of control (RPS6KA4 KD2 (human)): 17%
kinase still bound, per cent of control (BMP2K (human)): 84%
kinase still bound, per cent of control (SRPK2 (human)): 100%
kinase still bound, per cent of control (CDK16 (human)): 94%
kinase still bound, per cent of control (LCK (human)): 100%
kinase still bound, per cent of control (TYRO3 (human)): 100%
kinase still bound, per cent of control (CDC42BPG (human)): 100%
kinase still bound, per cent of control (TNK2 (human)): 23%
kinase still bound, per cent of control (ACVR2B (human)): 100%
